Several values for one entry are separate records, joined by “and”; a condition that tells them apart may be missing. Equal entries are not always repeated. Where only a bound is given, the exact number is not on record here.

Here are results for 15 compounds from ChEMBL document CHEMBL1136280, “Geraniol-derived 1,2,4-trioxanes with potent in-vivo antimalarial activity” (2003).

Assay type in all cases: functional
Assay [1] concerns Mus musculus. The assay is described as follows: Number of survival out of 5 mice on day 28 at the dose of 48 mg/kg/day i.m. The conditions noted are these: route intramuscular.
The subject of assay [2] is Mus musculus. In words: Number of survival out of 5 mice on day 28 at the dose of 48 mg/kg/day orally. Particulars: route oral.
The subject of assay [3] is Mus musculus. The assay is described as follows: Number of survival out of 5 mice on day 28 at the dose of 96 mg/kg/day i.m. The conditions noted are these: route intramuscular.
For assay [4], the system named is Mus musculus. In words: Number of survival out of 5 mice on day 28 at the dose of 96 mg/kg/day orally. Particulars: route oral.
The subject of assay [5] is Mus musculus. The assay is described as follows: Mean survival time calculated for the mice which died during 28 day observation period at the dose of 48 mg/kg/day i.m. The conditions noted are these: route intramuscular.
For assay [6], the system named is Mus musculus. In words: Mean survival time calculated for the mice which died during 28 day observation period at the dose of 48 mg/kg/day orally. The conditions noted are these: route oral.
Assay [7] relates to Mus musculus. The assay is described as follows: Mean survival time calculated for the mice which died during 28 day observation period at the dose of 96 mg/kg/day i.m. The conditions noted are these: route intramuscular.
In assay [8] the test system is Mus musculus. The assay is described as follows: Mean survival time calculated for the mice which died during 28 day observation period at the dose of 96 mg/kg/day orally. Particulars: route oral.
For assay [9], the system named is Mus musculus. In words: In vivo antimalarial activity against Plasmodium yoelii in Swiss mice (Mus musculus) on day 4 at the dose of 48 mg/kg/day intramuscular.
Assay [10] relates to Mus musculus. The assay is described as follows: In vivo antimalarial activity against Plasmodium yoelii in Swiss mice (Mus musculus) on day 4 at the dose of 48 mg/kg/day orally. The conditions noted are these: route oral.
Assay [11] relates to Mus musculus. The assay is described as follows: In vivo antimalarial activity against Plasmodium yoelii in Swiss mice (Mus musculus) on day 4 at the dose of 96 mg/kg/day intramuscular.
Assay [12] concerns Mus musculus. The assay is described as follows: In vivo antimalarial activity against Plasmodium yoelii in Swiss mice (Mus musculus) on day 4 at the dose of 96 mg/kg/day orally. Particulars: route oral.
For assay [13], the system named is Mus musculus. The assay is described as follows: Number of survival out of 5 mice on day 28 at the dose of 24 mg/kg/day i.m. The conditions noted are these: route intramuscular.
Assay [14] deals with Mus musculus. The assay is described as follows: Mean survival time calculated for the mice which died during 28 day observation period at the dose of 24 mg/kg/day i.m. Particulars: route intramuscular.
Assay [15] has as its system Mus musculus. In words: In vivo antimalarial activity against Plasmodium yoelii in Swiss mice (Mus musculus) on day 4 at the dose of 24 mg/kg/day intramuscular.
In assay [16] the test system is Mus musculus. In words: Number of survival out of 5 mice on day 28 at the dose of 24 mg/kg/day orally. The conditions noted are these: route oral.
The subject of assay [17] is Mus musculus. In words: Mean survival time calculated for the mice which died during 28 day observation period at the dose of 24 mg/kg/day orally. Particulars: route oral.
The test system of assay [18] is Mus musculus. In words: In vivo antimalarial activity against Plasmodium yoelii in Swiss mice (Mus musculus) on day 4 at the dose of 24 mg/kg/day orally. The conditions noted are these: route oral.

On to `C=C(CCC(O)c1ccc(-c2ccccc2)cc1)C1COC2(CCCCC2)OO1` (stereo not drawn), for which the Activity is listed as 0 in the assay with Mus musculus [1], 0 in the assay on Mus musculus [2], 4 with Mus musculus [3] and 0 in the assay with Mus musculus [4]. In addition, the MST with Mus musculus [5] is on record as 10.6; in the assay with Mus musculus [6], 11.2; with Mus musculus [7], 14; in the assay on Mus musculus [8], 13.8. The Suppression is recorded as 81% in the assay on Mus musculus [9], 77.5% with Mus musculus [10], 96.4% in the assay on Mus musculus [11] and 100% in the assay with Mus musculus [12].

Consider `C=C(CCC(O)c1ccccc1)C1COC2(OO1)C1CC3CC(C1)CC2C3` (stereo not drawn), for which the Activity with Mus musculus [1] is 2; in the assay with Mus musculus [2], 0; in the assay on Mus musculus [3], 5; with Mus musculus [4], 2. Besides, the MST with Mus musculus [6] is 9; in the assay on Mus musculus [7], >28 and 15.57; in the assay with Mus musculus [8], 16.57. The Suppression in the assay on Mus musculus [9] stood at 98.1%; in the assay on Mus musculus [10], 62.4%; with Mus musculus [11], 100%; in the assay on Mus musculus [12], 100%.

Regarding `C=C(CCC(O)c1ccc(Cl)cc1)C1COC2(CCCCC2)OO1` (stereo not drawn), the Activity in the assay on Mus musculus [1] was found to be 0; in the assay with Mus musculus [3], 5; in the assay on Mus musculus [4], 0. In addition, the MST is 16 in the assay with Mus musculus [5], above 28 with Mus musculus [7] and 10.2 in the assay with Mus musculus [8]. In addition, the results for the Suppression in the assay on Mus musculus [9], in the assay on Mus musculus [11] and in the assay on Mus musculus [12] were 97.1%, 100% and 88.8%, respectively.

Take `C=C(CCC(O)c1ccc(-c2ccccc2)cc1)C1COC2(CCCC2)OO1` (stereo not drawn): the Activity with Mus musculus [13] worked out at 0; in the assay on Mus musculus [1] it was 0; with Mus musculus [2], 0; with Mus musculus [3], 2; in the assay on Mus musculus [4], 0. In addition, the MST in the assay on Mus musculus [14] is reported as 11.8; in the assay with Mus musculus [5], 16.75; with Mus musculus [6] it was 12; in the assay with Mus musculus [7] it was 17.33; with Mus musculus [8], 16. Further, the Suppression in the assay with Mus musculus [15] turned out to be 85.2%; with Mus musculus [9], 100%; in the assay on Mus musculus [10] it was 94.3%; in the assay with Mus musculus [11], 100%; with Mus musculus [12] it was 100%.

For the compound `C=C(CCC(O)c1cccc2ccccc12)C1COC2(CCCCC2)OO1` (stereo not drawn), the Activity was 0 in the assay with Mus musculus [1], 4 in the assay with Mus musculus [3] and 0 in the assay on Mus musculus [4]. The MST in the assay on Mus musculus [5] is 14.2; with Mus musculus [7], 16; in the assay with Mus musculus [8], 13. The Suppression was 93.4% in the assay with Mus musculus [9], 100% with Mus musculus [11] and 68.4% with Mus musculus [12].

`C=C(CCC(O)c1cccc2ccccc12)C1COC2(OO1)C1CC3CC(C1)CC2C3` (stereo not drawn): the Activity in the assay on Mus musculus [16] is 0; in the assay with Mus musculus [2], 2; in the assay with Mus musculus [3] it was 2; with Mus musculus [4], 3. Also, the MST was 10.4 in the assay on Mus musculus [17], 15.57 in the assay on Mus musculus [6], 15.33 in the assay on Mus musculus [7] and 17 in the assay with Mus musculus [8]. Also, the Suppression with Mus musculus [18] amounted to 87.1%; with Mus musculus [10], 100%; in the assay with Mus musculus [11], 72.13%; in the assay with Mus musculus [12], 100%.

As for `C=C(CCC(O)c1cccc2ccccc12)C1COC2(CCCC2)OO1` (stereo not drawn), the Activity in the assay with Mus musculus [1] is given as 0; in the assay on Mus musculus [3], 1; in the assay with Mus musculus [4], 0. The MST is on record as 15.75 in the assay with Mus musculus [5], 14.75 with Mus musculus [7] and 10.4 with Mus musculus [8]. Further, the Suppression with Mus musculus [9] is on record as 93.4%; in the assay on Mus musculus [11], 100%; in the assay with Mus musculus [12], 81.3%.

Consider `C=C(CCC(O)c1ccccc1)C1COC2(CCCC2)OO1` (stereo not drawn), for which the values for the Activity in the assay with Mus musculus [1], in the assay with Mus musculus [3] and in the assay with Mus musculus [4] were 0, 2 and 0, respectively. Also, the MST in the assay with Mus musculus [5] is on record as 12.6; in the assay on Mus musculus [7] it was 14.8; with Mus musculus [8], 8.2. Further, the Suppression in the assay with Mus musculus [15] worked out at 67.7%; in the assay on Mus musculus [9], 100%; in the assay with Mus musculus [11], 100%.

As for `C=C(CCC(O)c1ccc(-c2ccccc2)cc1)C1COC2(OO1)C1CC3CC(C1)CC2C3` (stereo not drawn), the Activity in the assay on Mus musculus [16] was found to be 0; in the assay on Mus musculus [2] it was 2; in the assay on Mus musculus [3], 3; in the assay on Mus musculus [4] it was 3. The MST in the assay on Mus musculus [17] was 8.8; in the assay on Mus musculus [6], 17.57; in the assay with Mus musculus [7], 14.5; in the assay with Mus musculus [8], 17.33. Also, the Suppression is on record as 90.4% with Mus musculus [18], 100% with Mus musculus [10], 79% in the assay with Mus musculus [11] and 100% in the assay on Mus musculus [12].

Take `C=C(CCC(O)c1ccc(Cl)cc1)C1COC2(OO1)C1CC3CC(C1)CC2C3` (stereo not drawn): the Activity in the assay with Mus musculus [1] is listed as 0; in the assay with Mus musculus [2], 0; in the assay with Mus musculus [3], 5; in the assay with Mus musculus [4], 5. Besides, the MST in the assay on Mus musculus [6] was 10.2; in the assay with Mus musculus [7], >28 and 15; in the assay on Mus musculus [8], above 28. Also, the Suppression stood at 78.9% with Mus musculus [9], 90.8% in the assay with Mus musculus [10], 100% in the assay on Mus musculus [11] and 100% in the assay on Mus musculus [12].

As for `C=C(CCC(O)c1ccc(Cl)cc1)C1COC2(CCCC2)OO1` (stereo not drawn), the Activity in the assay on Mus musculus [1] turned out to be 0; in the assay on Mus musculus [3], 2; in the assay with Mus musculus [4], 0. For the same compound, the MST is on record as 14.57 in the assay with Mus musculus [5], 14.57 with Mus musculus [7] and 7.4 in the assay with Mus musculus [8]. The figures for the Suppression with Mus musculus [9], in the assay with Mus musculus [11] and in the assay with Mus musculus [12] were 98.4%, 100% and 29.6%, respectively.

In the case of `C=C(CCC(O)c1ccccc1)C1COC2(CCCCC2)OO1` (stereo not drawn), the Activity in the assay on Mus musculus [16], with Mus musculus [1] and in the assay on Mus musculus [3] was 0 in each case. For the same compound, the MST with Mus musculus [5] was 12.6; in the assay on Mus musculus [7], 14.4; in the assay with Mus musculus [8], 11.6. Further, the Suppression stood at 90.5% in the assay on Mus musculus [9], 94.5% in the assay with Mus musculus [11] and 65% with Mus musculus [12].

Regarding `C=C(C)C(O)CCC(=C)C1COC2(OO1)C1CC3CC(C1)CC2C3` (stereo not drawn), the Activity was determined as 0 in the assay with Mus musculus [13], 0 in the assay on Mus musculus [1] and 2 with Mus musculus [3]. The MST in the assay with Mus musculus [14] is 12.2; in the assay with Mus musculus [5], 14.8; in the assay on Mus musculus [7], 19.57. The Suppression in the assay with Mus musculus [15] was found to be 67.7%; in the assay with Mus musculus [9], 100%; in the assay on Mus musculus [11], 100%.

Consider `C[C@@H]1CC[C@H]2[C@@H](C)C(=O)O[C@@H]3O[C@@]4(C)CC[C@@H]1[C@]32OO4` [ARTEMISININ], for which the Activity with Mus musculus [13] was found to be 4; with Mus musculus [1], 5. Besides, the MST with Mus musculus [6] was 16; in the assay on Mus musculus [7] it was above 28. For the same compound, the Suppression with Mus musculus [15] and in the assay on Mus musculus [9] was 100% in each case.

As to `CCN(CC)CCCC(C)Nc1ccnc2cc(Cl)ccc12` (stereo not drawn) [CHLOROQUINE], the Activity in the assay with Mus musculus [2] and in the assay on Mus musculus [4] was 4 each time. The figures for the MST in the assay on Mus musculus [6] and with Mus musculus [8] were 17.6 and 20, respectively. Besides, the Suppression in the assay with Mus musculus [10] and in the assay with Mus musculus [12] was 100% in each case.
